{"source": "patent US20240100120A1", "about": "(priority 2019, published 2024)", "key": {"[1]": {"test_system": "fentanyl OIRD (integrated phrenic nerve activity, iPNA)", "conditions": "rat, in vivo, iv"}, "[2]": {"test_system": "side effects (e.g., respiratory depression) of opioid receptor agonists", "conditions": "oxytocin 0.32 mg/kg subcutaneously; heroin 0.1-1.0 mg/kg; rhesus monkeys"}, "hypopnea and apnea": {"test_system": "hypopnea and apnea", "conditions": "human sleep apnea patients; cited from earlier work"}, "[3]": {"test_system": "opioid self-administration", "conditions": "Kovacs G L, et al. Life Sci. 1985; cited from earlier work"}, "[4]": {"test_system": "integrated phrenic nerve activity (iPNA); opioid OIRD", "conditions": "rat, in vivo"}}, "note": "Where a SMILES comes first, the peptide text is derived from it. Bridges are numbered along the chain shown (N, C = ends). [ ]: non-standard residue; d: D form. Orn = NCCC[C@H](N)C(=O)O; Mpa = O=C(O)CCS"}
{"molecule": "(Phenylacl-D-Tyr(Et)2,Lys6,Arg8,des-Gly9)-vasopressin trifluoroacetate [V1aRX]", "values": [{"measurement": "effect of V1aR antagonism on OXTN reversal of OIRD", "setting": "[1]", "result": "significantly enhances reversal"}, {"measurement": "effect of V1aR antagonism on high dose OXTN reversal of OIRD", "setting": "[1]", "result": "efficacy is restored"}]}
{"molecule": "CCOc1ccc(C[C@H]2NC(=O)CCSSC[C@@H](C(=O)N3CCC[C@H]3C(=O)N[C@@H](CCCN)C(=O)NCC(N)=O)NC(=O)[C@H](CC(N)=O)NC(=O)[C@H]([C@@H](C)O)NC(=O)[C@H]([C@@H](C)CC)NC2=O)cc1", "note": "[atosiban] ([Mpa][dY](Et)ITNCP[Orn]G-NH2; disulfide 1-6)", "values": [{"measurement": "effect of OXTN receptor antagonism on OXTN reversal of FENT OIRD", "setting": "[1]", "result": "prevents OXTN (5 μg/kg) reversal of FENT OIRD"}]}
{"molecule": "CC[C@H](C)[C@@H]1NC(=O)[C@H](Cc2ccc(O)cc2)NC(=O)[C@@H](N)CSSC[C@@H](C(=O)N2CCC[C@H]2C(=O)N[C@@H](CC(C)C)C(=O)NCC(N)=O)NC(=O)[C@H](CC(N)=O)NC(=O)[C@H](CCC(N)=O)NC1=O", "note": "[oxytocin]", "values": [{"measurement": "reversal of side effects (e.g., respiratory depression) of opioid receptor agonists", "setting": "[2]", "result": "reversed"}, {"measurement": "frequency of hypopnea, apnea and hypopnea duration and related arousal", "setting": "hypopnea and apnea", "result": "improved"}, {"measurement": "opioid self-administration", "setting": "[3]", "result": "reduces opioid self-administration"}, {"measurement": "reduction of OIRD by OXT delivered into the PVN", "setting": "[4]", "result": "does not reduce OIRD"}]}
